For one series, the system named is L929. Briefly: Cell viability assay, protection from necroptosis in L929 cells. The settings on record: Mus musculus, L929, 16 h. Type of series: cell-based, mouse.
For another series, the system named is FADD−/− Jurkat. Briefly: Cell viability assay, protection from necroptosis in FADD−/− Jurkat cells. Type of series: cell-based. The settings on record: Homo sapiens, 16 h.
The target in the next series is hRIPK3 (Homo sapiens, UniProt Q9Y572). Briefly: In vitro RIPK3 kinase activity assay. The format is biochemical.
A further series has as its target T1, CYP2C8 (Homo sapiens, UniProt P10632).
T1 sequence (P10632 1-490): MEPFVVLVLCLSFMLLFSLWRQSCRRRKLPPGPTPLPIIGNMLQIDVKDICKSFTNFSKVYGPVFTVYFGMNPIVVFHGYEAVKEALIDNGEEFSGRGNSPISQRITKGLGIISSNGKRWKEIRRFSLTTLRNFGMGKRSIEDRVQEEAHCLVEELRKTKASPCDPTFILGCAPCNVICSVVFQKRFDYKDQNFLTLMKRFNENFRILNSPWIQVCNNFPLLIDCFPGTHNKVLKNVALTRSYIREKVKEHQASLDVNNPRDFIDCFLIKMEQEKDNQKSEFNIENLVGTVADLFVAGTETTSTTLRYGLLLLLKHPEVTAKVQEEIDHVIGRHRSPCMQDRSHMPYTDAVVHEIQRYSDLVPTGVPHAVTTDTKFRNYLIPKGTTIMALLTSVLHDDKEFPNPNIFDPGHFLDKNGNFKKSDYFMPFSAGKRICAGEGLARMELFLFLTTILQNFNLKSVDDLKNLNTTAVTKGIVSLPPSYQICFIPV
The experiment in a line: CYP450 inhibition. The format is in vitro ADME.

A short description of a further series: PK study in mice. Type of series: in vivo. The settings on record: male, ICR, mouse, plasma.
A further series addresses T2, hRIPK1 (Homo sapiens, UniProt Q13546).
T2 sequence (Q13546 1-671): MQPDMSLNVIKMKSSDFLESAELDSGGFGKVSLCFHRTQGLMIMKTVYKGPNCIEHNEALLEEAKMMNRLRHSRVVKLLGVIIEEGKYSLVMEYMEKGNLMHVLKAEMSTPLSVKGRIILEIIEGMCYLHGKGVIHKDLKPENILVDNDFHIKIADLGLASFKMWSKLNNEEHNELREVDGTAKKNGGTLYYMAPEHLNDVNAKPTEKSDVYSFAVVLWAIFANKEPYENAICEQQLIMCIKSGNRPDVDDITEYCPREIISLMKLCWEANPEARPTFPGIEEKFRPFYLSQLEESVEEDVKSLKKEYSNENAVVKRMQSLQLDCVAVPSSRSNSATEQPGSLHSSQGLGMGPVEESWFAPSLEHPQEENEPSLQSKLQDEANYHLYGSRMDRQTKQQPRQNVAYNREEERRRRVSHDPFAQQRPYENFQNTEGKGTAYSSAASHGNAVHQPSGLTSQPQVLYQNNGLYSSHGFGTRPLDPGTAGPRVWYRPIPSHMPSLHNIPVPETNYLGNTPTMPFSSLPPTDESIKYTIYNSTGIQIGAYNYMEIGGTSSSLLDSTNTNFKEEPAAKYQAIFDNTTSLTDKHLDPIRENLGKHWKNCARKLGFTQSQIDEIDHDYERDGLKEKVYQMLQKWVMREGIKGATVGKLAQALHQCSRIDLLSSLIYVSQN
Briefly: In vitro RIPK1 kinase activity assay. The format is biochemical. The settings on record: Enzymatic IC50s RIPK1, hRIPK1 enzymatic assay.

In a further series the target is TEL-TRKA fusion (Homo sapiens, UniProt P04629+P41212). Briefly: Anti-proliferation in engineered Ba/F3 cells dependent on TEL-TRKA. Type of series: cell-based. The settings on record: read-out: IC50 anti-proliferative effect, TEL-TRKA Ba/F3; 72 h.
Series [1] is described as follows: Metabolic stability in mouse liver microsomes. The format is in vitro ADME. On the technique in general: Liver microsomes are vesicles of endoplasmic reticulum, rich in cytochrome P450 enzymes.
A short description of series [2]: Metabolic stability in human liver microsomes. The format is in vitro ADME.
The test system of series [3] is phosphorylation of RIPK1, RIPK3 and MLKL. The experiment in a line: Western blotting of necroptotic signaling in L929 cells. Type of series: cell-based, mouse. (In general: In western blotting, separated proteins are transferred to a membrane and probed.)
Series [4] in a line: Cytotoxicity at high concentrations in cell viability assays. The format is cell-based.
Setting [5] is: read-out: EC50 FADD−/− Jurkat T + S.
[6] abbreviates: read-out: EC50 FADD−/− Jurkat TNFα.

Consider seven compounds from article PMC10793102 (Acta Pharmaceutica Sinica. B, 2023).

Like-named read-outs stand apart in the source and are kept apart here.

hRIPK3, sequence (Q9Y572 whole entry): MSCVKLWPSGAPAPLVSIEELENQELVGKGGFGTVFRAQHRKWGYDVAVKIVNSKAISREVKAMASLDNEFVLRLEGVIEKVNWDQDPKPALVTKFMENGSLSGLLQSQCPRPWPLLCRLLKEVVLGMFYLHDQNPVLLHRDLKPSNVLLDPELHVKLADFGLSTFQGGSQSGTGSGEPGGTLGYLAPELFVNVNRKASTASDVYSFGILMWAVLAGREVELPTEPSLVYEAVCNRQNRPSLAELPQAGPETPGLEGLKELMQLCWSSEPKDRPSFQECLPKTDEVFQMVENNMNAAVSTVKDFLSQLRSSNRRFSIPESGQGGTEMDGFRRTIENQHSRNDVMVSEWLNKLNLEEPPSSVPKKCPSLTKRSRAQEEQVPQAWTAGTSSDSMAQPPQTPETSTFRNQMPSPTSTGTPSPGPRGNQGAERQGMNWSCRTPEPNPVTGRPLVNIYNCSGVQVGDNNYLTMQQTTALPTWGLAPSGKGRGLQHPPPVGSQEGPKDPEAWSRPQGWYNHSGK
TEL-TRKA fusion, sequence (P04629 510-781 limits assumed, one chain of several): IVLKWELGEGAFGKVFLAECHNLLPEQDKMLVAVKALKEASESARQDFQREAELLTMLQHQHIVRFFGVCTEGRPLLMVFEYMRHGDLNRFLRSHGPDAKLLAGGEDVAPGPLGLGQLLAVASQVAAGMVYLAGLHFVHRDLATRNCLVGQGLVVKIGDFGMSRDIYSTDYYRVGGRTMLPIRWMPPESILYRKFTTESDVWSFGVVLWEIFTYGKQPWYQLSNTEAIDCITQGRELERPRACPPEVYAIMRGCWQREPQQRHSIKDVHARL

In general, AUC(0-inf) refers to the area under the concentration-time curve extrapolated to infinity. In general, AUC(0-t) refers to the area under the concentration-time curve up to a stated or last time point. Read a low AUC(0-t) as less exposure. Usually MRT inf stands for a mean duration of stay, worked out from the concentration-time curve. By Vd is commonly meant the apparent volume that relates the amount in the body to the concentration in plasma or blood. Lower therefore signals little distribution into tissue. A word on the clearance: it is a measure of how efficiently the substance is removed, as volume per time. High values mean efficient removal, low ones inefficient removal. Broadly, the half-life is the time in which the quantity being followed falls by half. Usually Cmax stands for the highest concentration seen after dosing. Usually Tmax stands for the time from dosing to the highest level. A word on the bioavailability: it is dose-corrected exposure relative to a reference, in per cent. High values mean much systemic uptake, low ones little systemic uptake. For the compound `Cn1ncc(C(=O)NCc2ccc(-n3cnc4c(N)ncnc43)cc2)c1Cc1ccccc1` [compound 39, N-(4-(6-Amino-9H-purin-9-yl)benzyl)-5-benzyl-1-methyl-1H-pyrazole-4-carboxamide], the EC50 in the series with L929 (read-out: EC50 L929 T + S) came out at 3.6 nM. The EC50 in the series on L929 (read-out: EC50 L929 TNFα) came out at 0.9 nM. Also, the EC50 in the series on FADD−/− Jurkat (setting [5]) turned out to be 1 nM. Also, the EC50 in the series on FADD−/− Jurkat (setting [6]) is 0.04 nM. Further, at hRIPK3, the IC50 is over 1000 nM. For the same compound, the “inhibition of CYP2C8 (in words)” value at CYP2C8 is “weakly inhibited CYP2C8”. In the series “PK study in mice” (iv, 1 mg/kg), this compound displayed an AUC(0-inf) of 882 ng·h/mL, an AUC(0-t) of 862 ng·h/mL, an MRT inf of 125 min and a volume of distribution (Vd) of 2.35 L/kg. Moreover, in the series “PK study in mice” (iv, 1 mg/kg), the clearance is 18.3 mL/min/kg and the half-life is 48.6 min. In “PK study in mice” (po, 10 mg/kg), this compound showed an AUC(0-inf) of 2210 ng·h/mL, an AUC(0-t) of 2190 ng·h/mL, a Cmax of 1340 ng/mL and an MRT inf of 153 min. Moreover, in “PK study in mice” (po, 10 mg/kg), the Tmax turned out to be 19.8 min, the bioavailability was found to be 25.4% and the half-life is 80.4 min. This compound also came in with an IC50 at hRIPK1 of 9.5 nM.
`C[C@@H](c1ccc(-n2cnc3c(N)ncnc32)cc1)N1Cc2nn(C)c(Cc3ccccc3)c2C1=O` [compound 63, (S)-5-(1-(4-(6-Amino-9H-purin-9-yl)phenyl)ethyl)-3-benzyl-2-methyl-5,6-dihydropyrrolo[3,4-c]pyrazol-4(2H)-one]: in the series with L929 (read-out: EC50 L929 T + S), the EC50 amounted to 1.6 nM. Besides, in the series on L929 (read-out: EC50 L929 TNFα), the EC50 was found to be 0.3 nM. Further, the EC50 in the series on FADD−/− Jurkat (setting [5]) amounted to 0.4 nM. For the same compound, the EC50 in the series with FADD−/− Jurkat (setting [6]) was 0.03 nM. Besides, in the series “PK study in mice” (iv, 1 mg/kg), the AUC(0-inf) is 644 ng·h/mL, the AUC(0-t) was found to be 643 ng·h/mL, the MRT inf was found to be 58.2 min and the Vd was 1.6 L/kg. In “PK study in mice” (iv, 1 mg/kg), this compound had a clearance of 26.7 mL/min/kg and a half-life of 36.6 min. In the series “PK study in mice” (po, 10 mg/kg), this compound registered an AUC(0-inf) of 1730 ng·h/mL, an AUC(0-t) of 1700 ng·h/mL, a peak concentration (Cmax) of 714 ng/mL and an MRT inf of 165 min. In “PK study in mice” (po, 10 mg/kg), the time to peak (Tmax) stood at 40.2 min, the bioavailability was 26.4% and the half-life was 63 min. In addition, the IC50 at TEL-TRKA fusion was over 1000 nM.
With `CNC(=O)c1ccc2c(c1)ncn2-c1ccc(CNC(=O)c2cnn(C)c2Cc2ccccc2)cc1` [compound 27], the EC50 was 77 nM with L929 (read-out: EC50 L929 T + S), 20 nM in the series with L929 (read-out: EC50 L929 TNFα), 5.2 nM with FADD−/− Jurkat (setting [5]) and 0.5 nM in the series on FADD−/− Jurkat (setting [6]). The half-life in series [1] and in [2] was about 40 min in each case.
On to `CN1C(=O)[C@@H](NC(=O)c2n[nH]c(Cc3ccccc3)n2)COc2ccccc21` [compound 2, GSK2982772, reference compound], for which the EC50 in the series with L929 (read-out: EC50 L929 T + S) was found to be 8280 nM; in the series with L929 (read-out: EC50 L929 TNFα), 1200 nM; in the series on FADD−/− Jurkat (setting [5]) it was 3.9 nM; in the series with FADD−/− Jurkat (setting [6]) it was 0.5 nM. The “phosphorylation cascade (Western blot), L929” value in series [3] is “inactive even at 1 μmol/L”.
With `C[C@H](NC(=O)c1nnn(C)c1Cc1ccccc1)c1ccc(-n2cnc3c(N)ncnc32)cc1` [compound 58], the EC50 in the series on L929 (read-out: EC50 L929 T + S), in the series with L929 (read-out: EC50 L929 TNFα), in the series with FADD−/− Jurkat (setting [5]) and with FADD−/− Jurkat (setting [6]) was under 0.01 nM in each case. For the same compound, in series [4], the “cytotoxicity at high concentrations” value is recorded as “increased cytotoxicity at higher concentrations”.
Turning to `Cn1nnc(C(=O)NCc2ccc(-n3cnc4c(N)ncnc43)cc2)c1Cc1ccccc1` [compound 49, N-(4-(6-Amino-9H-purin-9-yl)benzyl)-5-benzyl-1-methyl-1H-1,2,3-triazole-4-carboxamide], the EC50 with L929 (read-out: EC50 L929 T + S) was 0.06 nM. In addition, in the series on L929 (read-out: EC50 L929 TNFα), the EC50 amounted to 0.03 nM. Also, the EC50 with FADD−/− Jurkat (setting [5]) was 0.5 nM. In addition, in the series on FADD−/− Jurkat (setting [6]), the EC50 is 0.06 nM. The compound also returned an IC50 against hRIPK3 of over 1000 nM. The “inhibition of CYP2C8 (in words)” value on CYP2C8 was “weakly inhibited CYP2C8”. Also, in the series “PK study in mice” (iv, 1 mg/kg), the AUC(0-inf) was found to be 1420 ng·h/mL, the AUC(0-t) stood at 1240 ng·h/mL, the MRT inf amounted to 630 min and the Vd amounted to 6.98 L/kg. Further, in the series “PK study in mice” (iv, 1 mg/kg), the clearance was 11.7 mL/min/kg and the half-life is 61.8 min. In “PK study in mice” (po, 10 mg/kg), this compound gave a total exposure AUC(0-inf) of 4330 ng·h/mL, an AUC(0-t) of 4110 ng·h/mL, a Cmax of 1220 ng/mL and a mean residence time (MRT inf) of 345 min. In “PK study in mice” (po, 10 mg/kg), the Tmax worked out at 40.2 min, the bioavailability was 33.3% and the half-life was 99 min. Further, at hRIPK1, the IC50 is about 6 nM.
As to `CNC(=O)c1ccc2c(c1)ncn2-c1ccc(CNC(=O)c2cc(Cc3ccccc3)n(C)n2)cc1` [compound 20, 1-(4-((5-Benzyl-1-methyl-1H-pyrazole-3-carboxamido)methyl)phenyl)-N-methyl-1H-benzo[d]imidazole-5-carboxamide], the results for the EC50 with L929 (read-out: EC50 L929 TNFα), in the series on FADD−/− Jurkat (setting [5]) and in the series with FADD−/− Jurkat (setting [6]) were 312 nM, 44 nM and 5.1 nM, respectively. The half-life in series [1] and in [2] was about 40 min each time.
